Patent US9340821B2, “Specific fluorescent probe based on albumin pseudo-esterase hydrolysis reaction and use thereof” (DALIAN INSTITUTE OF CHEMICAL PHYSICS, CHINESE ACADEMY OF …, priority 2013, dated 2016)
Each block holds one molecule with its values, some of them ahead of it.

Columns and labels:
HSA [1] = molecular target: T1, HSA (Homo sapiens, UniProt P02768); assay: Quantitative analysis of HSA in recombinant expression system; details: 1 mg/mL recombinant HSA in PBS pH 7.4, probe 10 μM, 37° C., 30 min
T1 sequence (P02768 25-609): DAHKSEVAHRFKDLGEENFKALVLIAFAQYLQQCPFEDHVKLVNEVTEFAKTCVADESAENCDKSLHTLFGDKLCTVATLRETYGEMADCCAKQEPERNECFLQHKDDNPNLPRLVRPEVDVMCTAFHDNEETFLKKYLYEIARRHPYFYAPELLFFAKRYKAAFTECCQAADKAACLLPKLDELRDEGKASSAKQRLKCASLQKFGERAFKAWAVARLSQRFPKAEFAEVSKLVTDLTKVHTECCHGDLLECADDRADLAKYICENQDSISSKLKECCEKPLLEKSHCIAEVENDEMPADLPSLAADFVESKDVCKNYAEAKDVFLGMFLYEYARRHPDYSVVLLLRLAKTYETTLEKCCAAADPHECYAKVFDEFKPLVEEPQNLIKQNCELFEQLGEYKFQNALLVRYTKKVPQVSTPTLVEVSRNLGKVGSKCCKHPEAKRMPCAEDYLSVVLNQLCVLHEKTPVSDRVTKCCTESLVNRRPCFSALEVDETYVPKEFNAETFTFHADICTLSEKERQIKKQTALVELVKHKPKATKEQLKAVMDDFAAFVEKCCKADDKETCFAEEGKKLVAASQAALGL
Procedure: (1) 10 mg recombinant HSA was weighted and dissolved in PBS (pH=7.4), configuring to 1 mg/mL albumin solution at 37° C.
(§1) (2) 20 μL fluorescent probe D (0.5 mM) was added to the above solution to make the final concentration of the fluorescent probe to 10 μM, and then samples were incubated turmoil at 37° C. for 30 min, 1 mL ice-cold CH3CN was added to the sample and stirred for 15 second, then the reaction stopped.
(3) Detecting the fluorescence intensity of probe D (λex=342 nm, λem=416 nm) and hydrolysate D1 (λex=452 nm, λem=564 nm) at corresponding wavelength and the fluorescence intensity ratio of D1 to D was calculated.
(4) Based on the working curve, the concentration of HSA in this sample (1 mg/mL recombinant HSA solution) was calculated as 14.9 μM.

HSA [2] = molecular target: T1, HSA; assay: Quantitative analysis of albumin in urine sample; details: human urine diluted with PBS pH 7.4, probe 10 μM, 37° C., 30 min
Procedure: (1) 490 μL of human urine sample was diluted by 490 μL PBS (pH 7.4, 10 mM), and then samples were incubated at 45° C. for 10 min.
as §1, with “C” for “D”, “reaction was” for “reaction”
(3) Detecting the fluorescence intensity of probe C (λex=342 nm, λem=416 nm) and hydrolysate C1 (λex=452 nm, λem=564 nm) at corresponding wavelength and the fluorescence intensity ratio of C1 to C was calculated.
(4) Finding the corresponding albumin level in the working curve, concentration of HSA in the sample was calculated as 48 mg/L.

HSA [3] = molecular target: T1, HSA; assay: Quantitative analysis of albumin in human plasma sample; design: from tissue; host or cells: human plasma (A3); human urine (A4); details: human plasma diluted 200 times in PBS pH 7.4, probe 10 μM, 45° C., 30 min
Procedure: (1) 1 μL of human plasma sample was diluted to 200 times by PBS (pH 7.4, 10 mM), then samples were incubated turmoil at 45° C. for 10 min.
(2) 4 μL fluorescent probe B (0.5 mM) was added to the above solution to make the final concentration of the fluorescent probe to 10 μM, and then samples were incubated at 45° C.
(3) After 30 min, 200 μL of ice-cold CH3CN was added to the sample and stirred, and then the reaction was stopped.
(4) Detecting the fluorescence intensity of probe B (λex=342 nm, λem=416 nm) and hydrolysate B1 (λex=452 nm, λem=564 nm) at corresponding wavelength and calculating the fluorescence intensity ratio of B1 to B, the fluorescence ratio was substituted into working curve from example 2, concentration of HSA in plasma albumin was calculated as […].

concentration of HSA in recombinant HSA solution calculated from working curve (HSA [1]): 14.9 µM
Structure (SMILES): CCCCN1C(=O)c2cccc3c(OC(=O)c4ccc(OC)cc4)ccc(c23)C1=O [Probe D, N-n-butyl-1,8-naphthalimide-4-(4-methoxyphenylbenzoate)]

concentration of HSA in urine sample calculated from working curve (HSA [2]): 48 mg/L
Structure (SMILES): O=C(O)CCCN1C(=O)c2cccc3c(OC(=O)c4ccc(-c5ccccc5)cc4)ccc(c23)C1=O [Probe C, N-3-carboxy propyl-1,8-naphthalimide-4-phenylbenzoate]

concentration of HSA in plasma calculated from fluorescence ratio (HSA [3]): 46.2 mg/mL
Structure (SMILES): CCCCN1C(=O)c2cccc3c(OC(=O)c4ccc(C)cc4)ccc(c23)C1=O [Probe B, N-n-butyl-1,8-naphthalimide-4-(4-methylphenylbenzoate)]
